In EP4603105A1, “PHARMACEUTICAL COMPOSITION CONTAINING CYCLIC COMPOUND HAVING SELECTIVE KRAS INHIBITORY EFFECT AGAINST HRAS AND NRAS” (CHUGAI SEIYAKU KABUSHIKI KAISHA, priority 2022, dated 2024):

How the values were obtained:
[1] = target: GDP-bound KRAS wild-type protein (Homo sapiens, UniProt P01116); test: Binding to KRAS by surface plasmon resonance (SPR), dissociation constant KD
Outline: (§1)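 Single-cycle kinetics on GDP-loaded biotin-Avi RAS captured to ~100–300 RU; 75 s ascending injections, 100 µL/min, 30°C. HBS pH 7.4 + 10 mM MgCl2/10 µM GDP/4% DMSO. 1:1 fit, KD.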

[2] = target: GDP-bound NRAS wild-type protein (Homo sapiens, UniProt P01111); test: Binding to NRAS by surface plasmon resonance (SPR), KD and KD ratio to KRAS; details: ratio of KD for GDP-bound NRAS wild-type protein to KD for KRAS
Sequence of GDP-bound NRAS wild-type protein (P01111 whole entry): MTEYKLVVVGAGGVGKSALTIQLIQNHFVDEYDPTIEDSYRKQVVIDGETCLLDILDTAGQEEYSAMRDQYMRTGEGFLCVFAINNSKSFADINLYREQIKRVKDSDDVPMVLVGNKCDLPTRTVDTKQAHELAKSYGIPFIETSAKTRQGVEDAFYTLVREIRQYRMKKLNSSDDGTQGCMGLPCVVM
Outline: as §1

[3] = target: HRAS wild-type protein (Homo sapiens, UniProt P01112); test: Binding to HRAS by surface plasmon resonance (SPR), KD and KD ratio to KRAS; details: ratio of KD for HRAS wild-type protein to KD for KRAS
Sequence of HRAS wild-type protein (P01112 whole entry): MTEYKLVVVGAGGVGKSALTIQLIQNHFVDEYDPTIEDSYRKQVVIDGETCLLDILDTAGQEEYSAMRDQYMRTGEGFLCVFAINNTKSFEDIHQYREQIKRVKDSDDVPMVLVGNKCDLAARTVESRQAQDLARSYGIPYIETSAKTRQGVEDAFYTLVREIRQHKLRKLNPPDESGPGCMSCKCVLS
Outline: as §1

[4] = tested on: human lung cancer strain NCI-H441; test: NCI-H441 cell proliferation inhibitory activity (CellTiter-Glo, 4 days); type: cell-based; details: NCI-H441 cells, 4 days, read-out: NCl-H441 IC50
Outline: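 Proliferation was scored by […] measured after the reagent was added to cultures kept at 37°C in 5% carbon dioxide.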

Sequence of GDP-bound KRAS wild-type protein (P01116 1-188 isoform P01116-2): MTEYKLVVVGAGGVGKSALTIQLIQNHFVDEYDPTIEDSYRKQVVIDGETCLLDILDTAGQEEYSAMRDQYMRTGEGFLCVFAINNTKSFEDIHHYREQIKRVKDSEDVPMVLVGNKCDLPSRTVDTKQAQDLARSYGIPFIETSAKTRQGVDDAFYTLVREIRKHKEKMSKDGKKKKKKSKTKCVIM

Structure (SMILES) | Kd ([1]; 1:1 binding model) | NRAS /KRAS [2] | HRAS /KRAS [3] | IC50 [4] | Kd ([1]; Single Cycle Kinetics)
CCOC[C@H]1C(=O)N[C@@H]([C@@H](C)CC)C(=O)N(C)CC(=O)N(C)[C@H]2C/C=C\CCN(C2=O)[C@@H](CC2CCC(F)(F)CC2)C(=O)N(C)CC(=O)N[C@@H](CCc2ccc(C(F)(F)F)c(Cl)c2)C(=O)N2C[C@@H](C)C[C@H]2C(=O)NC2(CC(C)(C)C2)C(=O)N(C)[C@@H](C(CC)CC)C(=O)N(C)[C@H](C(=O)N(C)C)CC(=O)N1C [PP2475] | 1.5 nM | AA (a compound having 20 or more is denoted as AA) | A (a compound having 10 or more and less than 20 is denoted as A) | 176 nM | 
CCOC[C@H]1C(=O)N[C@@H]([C@@H](C)CC)C(=O)N(C)CC(=O)N(C)[C@H]2C/C=C\CCN(C2=O)[C@@H](Cc2ccc(C(F)(F)F)cc2)C(=O)N(C)CC(=O)N[C@@H](CCc2ccc(Cl)c(Cl)c2)C(=O)N2C[C@H](OCC)C[C@H]2C(=O)NC2(CC(C)(C)C2)C(=O)N(C)[C@@H](CC2CCC2)C(=O)N(C)[C@H](C(=O)N(C)C)CC(=O)N1C [PP2767] | 0.49 nM | A (a compound having 10 or more and less than 20 is denoted as A) | A (a compound having 10 or more and less than 20 is denoted as A) | 62.6 nM | 
CCC[C@H]1C(=O)N[C@@H](C2CCCC2)C(=O)N(C)CC(=O)N(C)[C@H]2C/C=C\CCN(C2=O)[C@@H](Cc2ccc(C)cc2)C(=O)N(C)CC(=O)N[C@@H](CCc2ccc(C(F)(F)F)c(Cl)c2)C(=O)N2CC3(CC3)C[C@H]2C(=O)NC2(CCC2)C(=O)N(C)[C@@H](C(CC)CC)C(=O)N(C)[C@H](C(=O)N(C)C)CC(=O)N1C [PP3432] |  | AA (a compound having 20 or more is denoted as AA) | A (a compound having 10 or more and less than 20 is denoted as A) | 57.7 nM | 0.71 nM
CCC[C@H]1C(=O)N[C@@H]([C@@H](C)CC)C(=O)N(C)CC(=O)N(C)[C@H]2C/C=C\CCN(C2=O)[C@@H](Cc2ccc(C)cc2)C(=O)N(C)CC(=O)N[C@@H](CCc2ccc(C(F)(F)F)c(Cl)c2)C(=O)N2CC3(CC3)C[C@H]2C(=O)N(C)C2(CCC2)C(=O)N(C)[C@@H]([C@@H](C)CC)C(=O)N(C)[C@H](C(=O)N(C)C)CC(=O)N1C [PP3302] |  | A (a compound having 10 or more and less than 20 is denoted as A) | A (a compound having 10 or more and less than 20 is denoted as A) | 9 nM | 0.081 nM
CCC(CC)[C@H]1C(=O)N(C)[C@H](C(=O)N(C)C)CC(=O)N(C)[C@@H](COC)C(=O)N[C@@H]([C@@H](C)CC)C(=O)N(C2CC2)CC(=O)N(C)[C@H]2C/C=C\CCN(C2=O)[C@@H](CC2CCC(F)(F)CC2)C(=O)N(C)CC(=O)N[C@@H](CCc2cc(F)c(C(F)(F)F)c(F)c2)C(=O)N2C[C@H](OC3CCC3)C[C@H]2C(=O)NC2(CC(C)(C)C2)C(=O)N1C [PP2615] | 2 nM | A (a compound having 10 or more and less than 20 is denoted as A) | A (a compound having 10 or more and less than 20 is denoted as A) | 88.7 nM | 
CCCO[C@H](C)[C@@H]1NC(=O)[C@H](COCC)N(C)C(=O)C[C@@H](C(=O)N(C)CC)N(C)C(=O)[C@H](C2CCCC2)N(C)C(=O)C2(CC(C)(C)C2)NC(=O)[C@@H]2C[C@H](C)CN2C(=O)[C@H](CCc2ccc(C(F)(F)F)c(OC)c2)NC(=O)CN(C)C(=O)[C@H](Cc2ccc(C)cc2)N2CC/C=C\C[C@@H](C2=O)N(C)C(=O)CN(C)C1=O [PP2425] | 0.23 nM | AA (a compound having 20 or more is denoted as AA) | A (a compound having 10 or more and less than 20 is denoted as A) | 51.7 nM | 
